The source of these data is ChEMBL document CHEMBL4004878, “Design, synthesis and structure-bactericidal activity relationships of novel 9-oxime ketolides and reductive epimers of acylides” (2017).

SMILES strings stand for the structures. Converted amounts (≈) assume the structure as drawn. A value given as a limit tells only on which side of the number the result lay.

Common to all, as to type: functional
For assay [1], the system named is Streptococcus pyogenes. The assay can be described thus: Ratio of MBC to MIC for Streptococcus pyogenes 12-207 expressing mef.
Assay [2] deals with Moraxella catarrhalis. The assay can be described thus: Ratio of MBC to MIC against erythromycin-susceptible Moraxella catarrhalis 11B366.
For assay [3], the system named is Streptococcus pyogenes. The assay can be described thus: Bacteriostatic activity against Streptococcus pyogenes 12-207 expressing mef after 20 to 24 hrs by two-fold microbroth dilution method.
The subject of assay [4] is Streptococcus pyogenes. The assay can be described thus: Bacteriostatic activity against Streptococcus pyogenes 01-968 expressing inducible ermA after 20 to 24 hrs by two-fold microbroth dilution method. In general terms: In broth dilution the organism is exposed to a series of concentrations in liquid medium.
Assay [5] relates to Streptococcus pneumoniae. The assay can be described thus: Bactericidal activity against penicillin-susceptible Streptococcus pneumoniae PU09 incubated for 20 to 24 hrs followed by sub-culturing for 24 hrs in absence of compound.
In assay [6] the test system is Staphylococcus aureus. The assay can be described thus: Bacteriostatic activity against methicillin-resistant Staphylococcus aureus PU20 expressing constitutive ermC after 20 hrs by two-fold microbroth dilution method. As to conditions: PU20, 20 h.
In assay [7] the test system is Streptococcus pneumoniae. Put plainly: Ratio of MBC to MIC for penicillin-susceptible Streptococcus pneumoniae PU09.
The subject of assay [8] is Staphylococcus aureus. The assay can be described thus: Bacteriostatic activity against methicillin-resistant Staphylococcus aureus PU32 expressing inducible ermA after 20 hrs by two-fold microbroth dilution method. Particulars: PU32, 20 h.
The test system of assay [9] is Streptococcus pyogenes. The assay can be described thus: Bactericidal activity against Streptococcus pyogenes 01-968 expressing inducible ermA incubated for 20 to 24 hrs followed by sub-culturing for 24 hrs in absence of compound.
Assay [10] has as its system Streptococcus pyogenes. The assay can be described thus: Bactericidal activity against Streptococcus pyogenes 12-207 expressing mef incubated for 20 to 24 hrs followed by sub-culturing for 24 hrs in absence of compound.
Assay [11] has as its system Streptococcus pyogenes. Put plainly: Ratio of MBC to MIC for Streptococcus pyogenes 01-968 expressing inducible ermA.
The subject of assay [12] is Streptococcus pneumoniae. Put plainly: Bacteriostatic activity against […] Streptococcus pneumoniae ATCC 49619 after 20 to 24 hrs by two-fold microbroth dilution method.
The subject of assay [13] is Streptococcus pneumoniae. Put plainly: Bacteriostatic activity against penicillin-susceptible Streptococcus pneumoniae PU09 after 20 to 24 hrs by two-fold microbroth dilution method.
Assay [14] relates to Staphylococcus aureus. Put plainly: Bactericidal activity against methicillin-resistant Staphylococcus aureus PU32 expressing inducible ermA incubated for 20 hrs followed by sub-culturing for 24 hrs in absence of compound.
Assay [15] has as its system Haemophilus influenzae. The assay can be described thus: Bacteriostatic activity against azithromycin-susceptible/ampicillin-resistant Haemophilus influenzae 11P307 after 20 to 24 hrs by two-fold microbroth dilution method.
For assay [16], the system named is Streptococcus pneumoniae. The assay can be described thus: Bactericidal activity against […] Streptococcus pneumoniae ATCC 49619 incubated for 20 to 24 hrs followed by sub-culturing for 24 hrs in absence of compound.
For assay [17], the system named is Moraxella catarrhalis. The assay can be described thus: Bactericidal activity against erythromycin-susceptible Moraxella catarrhalis 11B366 incubated for 20 hrs followed by sub-culturing for 24 hrs in absence of compound.
Assay [18] has as its system Moraxella catarrhalis. Put plainly: Bacteriostatic activity against erythromycin-susceptible Moraxella catarrhalis 11B366 after 20 hrs by two-fold microbroth dilution method. Particulars: 11B366, 20 h.
For assay [19], the system named is Moraxella catarrhalis. Put plainly: Bactericidal activity against erythromycin-susceptible Moraxella catarrhalis 13L332 incubated for 20 hrs followed by sub-culturing for 24 hrs in absence of compound.
Assay [20] deals with Moraxella catarrhalis. The assay can be described thus: Bacteriostatic activity against erythromycin-susceptible Moraxella catarrhalis 13L332 after 20 hrs by two-fold microbroth dilution method. Particulars: 13L332, 20 h.
For assay [21], the system named is Staphylococcus aureus. The assay can be described thus: Bactericidal activity against methicillin-resistant Staphylococcus aureus PU20 expressing constitutive ermC incubated for 20 hrs followed by sub-culturing for 24 hrs in absence of compound.
For assay [22], the system named is Staphylococcus aureus. The assay can be described thus: Ratio of MBC to MIC against methicillin-resistant Staphylococcus aureus PU32 expressing inducible ermA.
For assay [23], the system named is Haemophilus influenzae. The assay can be described thus: Bactericidal activity against azithromycin susceptible/ampicillin-resistant Haemophilus influenzae 11P307 incubated for 20 to 24 hrs followed by sub-culturing for 24 hrs in absence of compound.
For assay [24], the system named is Haemophilus influenzae. Put plainly: Ratio of MBC to MIC for azithromycin susceptible/ampicillin-resistant Haemophilus influenzae 11P307.
The test system of assay [25] is Streptococcus pneumoniae. The assay can be described thus: Ratio of MBC to MIC for […] Streptococcus pneumoniae ATCC 49619.

For the molecule `C#CCN(C)[C@H]1C[C@@H](C)O[C@@H](O[C@@H]2[C@@H](C)C(=O)[C@@H](C)C(=O)O[C@H](CC)[C@@]3(C)OC(=O)O[C@@H]3[C@@H](C)/C(=N/OC/C=C/c3cnc4ccccc4c3)[C@H](C)C[C@@]2(C)OC)[C@@H]1O`, the Ratio is given as greater than 8 in the assay on Streptococcus pyogenes [1], greater than 8 in the assay with Moraxella catarrhalis [2], 4 in the assay on Streptococcus pneumoniae [7] and greater than 8 with Streptococcus pyogenes [11]. For the same molecule, the MIC is 1 µg/mL (≈ 1.22 µM) in the assay with Streptococcus pyogenes [3]; 0.5 µg/mL (≈ 0.61 µM) in the assay with Streptococcus pyogenes [4]; greater than 256 µg/mL in the assay on Staphylococcus aureus [6]; 16 µg/mL (≈ 19.5 µM) in the assay with Staphylococcus aureus [8]; 0.25 µg/mL (≈ 0.305 µM) against Streptococcus pneumoniae [12]; 1 µg/mL (≈ 1.22 µM) in the assay on Streptococcus pneumoniae [13]. For the same molecule, the figures for the MIC in the assay with Haemophilus influenzae [15] and in the assay on Moraxella catarrhalis [18] were greater than 256 µg/mL and 32 µg/mL (≈ 39 µM), respectively. Also, the MBC with Streptococcus pneumoniae [5] is 4 µg/mL (≈ 4.88 µM); in the assay on Streptococcus pyogenes [9] it was greater than 4 µg/mL; against Streptococcus pyogenes [10] it was greater than 8 µg/mL; against Staphylococcus aureus [14] it was greater than 16 µg/mL; in the assay with Streptococcus pneumoniae [16], 1 µg/mL (≈ 1.22 µM); in the assay on Moraxella catarrhalis [17], greater than 256 µg/mL.
For `CC[C@H]1OC(=O)[C@H](C)[C@H](OC(=O)Cc2ccccn2)[C@H](C)[C@@H](O[C@@H]2O[C@H](C)C[C@H](N(C)C)[C@H]2O)[C@](C)(OC)C[C@@H](C)/C(=N\OC)[C@H](C)[C@H]2OC(=O)O[C@@]21C`, the MIC is greater than 64 µg/mL against Streptococcus pyogenes [4]; greater than 256 µg/mL against Staphylococcus aureus [6]; greater than 256 µg/mL with Staphylococcus aureus [8]; greater than 64 µg/mL in the assay on Streptococcus pneumoniae [12]; 32 µg/mL (≈ 41.9 µM) against Streptococcus pneumoniae [13]; 32 µg/mL (≈ 41.9 µM) in the assay on Moraxella catarrhalis [20]. For the same molecule, the MBC against Streptococcus pneumoniae [5] was greater than 64 µg/mL; in the assay with Streptococcus pyogenes [9], greater than 64 µg/mL; in the assay with Moraxella catarrhalis [19] it was greater than 64 µg/mL; against Staphylococcus aureus [21], greater than 256 µg/mL; with Staphylococcus aureus [14], greater than 256 µg/mL; against Streptococcus pneumoniae [16], greater than 64 µg/mL.
With `CC[C@H]1OC(=O)[C@H](C)[C@H](OC(=O)c2ccccn2)[C@H](C)[C@@H](O[C@@H]2O[C@H](C)C[C@H](N(C)C)[C@H]2O)[C@](C)(OC)C[C@@H](C)/C(=N\OC)[C@H](C)[C@H]2OC(=O)O[C@@]21C`, the MIC was greater than 64 µg/mL in the assay with Streptococcus pyogenes [4]; greater than 256 µg/mL against Staphylococcus aureus [6]; greater than 256 µg/mL against Staphylococcus aureus [8]; 64 µg/mL (≈ 85.3 µM) with Streptococcus pneumoniae [12]; 64 µg/mL (≈ 85.3 µM) against Streptococcus pneumoniae [13]; 32 µg/mL (≈ 42.7 µM) with Moraxella catarrhalis [20]. Moreover, the MBC in the assay with Streptococcus pneumoniae [5] is greater than 64 µg/mL; against Streptococcus pyogenes [9], greater than 64 µg/mL; in the assay on Moraxella catarrhalis [19], greater than 64 µg/mL; in the assay with Staphylococcus aureus [21] it was greater than 256 µg/mL; in the assay on Staphylococcus aureus [14], greater than 256 µg/mL; with Streptococcus pneumoniae [16] it was greater than 64 µg/mL.
On to `C=CCN(C)[C@H]1C[C@@H](C)O[C@@H](O[C@@H]2[C@@H](C)C(=O)[C@@H](C)C(=O)O[C@H](CC)[C@@]3(C)OC(=O)O[C@@H]3[C@@H](C)/C(=N/OC/C=C/c3cnc4ccccc4c3)[C@H](C)C[C@@]2(C)OC)[C@@H]1O`, for which the Ratio in the assay on Streptococcus pyogenes [1] was 4; in the assay on Moraxella catarrhalis [2] it was 2; with Streptococcus pneumoniae [7], 1; in the assay with Staphylococcus aureus [22] it was greater than 8; with Streptococcus pyogenes [11], 8; in the assay on Haemophilus influenzae [24], greater than 8. Further, the Ratio in the assay on Streptococcus pneumoniae [25] is listed as 4. In addition, the MIC is 0.25 µg/mL (≈ 0.304 µM) against Streptococcus pyogenes [3]; 0.5 µg/mL (≈ 0.608 µM) in the assay on Streptococcus pyogenes [4]; greater than 256 µg/mL in the assay on Staphylococcus aureus [6]; 2 µg/mL (≈ 2.43 µM) in the assay on Staphylococcus aureus [8]; 0.062 µg/mL (≈ 0.0754 µM) against Streptococcus pneumoniae [12]; 0.5 µg/mL (≈ 0.608 µM) against Streptococcus pneumoniae [13]. The figures for the MIC with Haemophilus influenzae [15] and against Moraxella catarrhalis [18] were 32 µg/mL (≈ 38.9 µM) and 8 µg/mL (≈ 9.73 µM), respectively. Further, the MBC was 0.5 µg/mL (≈ 0.608 µM) against Streptococcus pneumoniae [5]; 4 µg/mL (≈ 4.87 µM) in the assay on Streptococcus pyogenes [9]; 1 µg/mL (≈ 1.22 µM) against Streptococcus pyogenes [10]; greater than 256 µg/mL against Haemophilus influenzae [23]; greater than 16 µg/mL in the assay on Staphylococcus aureus [14]; 0.25 µg/mL (≈ 0.304 µM) in the assay on Streptococcus pneumoniae [16]. This molecule also yielded an MBC against Moraxella catarrhalis [17] of 16 µg/mL (≈ 19.5 µM).
